Measurements reported in patent US8937068B2, “Pyridopyrazine derivatives and their use” (Zentaris GmbH, priority 2005, dated 2015).

Tests used:
[1] = tested on: Jnk1 + Jnk2; assay: Cell-free kinase assay (ALPHA technology), Jnk1 + Jnk2; assay type: biochemical, human; details: 10 μM ATP
Description: (§1) The inhibitory effect of the compounds according to the invention was tested on various serine/threonine, tyrosine and lipid kinases in enzymatic assays. Recombinant human kinases such as, for example, Erk2, PI3Kalpha, -beta, -gamma, -delta, p38alpha, p38gamma, Jnk1, Jnk2 and others were used in this case, partly as full-length kinases, partly as shortened fragments, but at least consisting of the functional kinase domains. The commercial kinase proteins (Proqinase, Upstate) were used as recombinant fusion proteins with GST (glutathion-S-transferase) or His-Tag. Depending on the type of substrate, the various kinase reactions were quantified by means of suitable ALPHA™ beads (Perkin-Elmer).
(§2) The substance testing is described in detail hereinafter for the Erk assay.
(§3) a) MAPK-ALPHAs (e.g. Erk2): the test substance, 0.625 ng Erk2 (#14-173, Upstate), 10 μM ATP and 15 nM biotinylated MBP (myelin basic protein) substrate were incubated on a 384-well Optiplate (Perkin-Elmer) in a volume of 15 μl for 1 h in 25 mM Tris, 10 mM MgCl2, 0.1% Tween-20, 100 μM NaVO4, 2 mM DTT at pH 7.5. The kinase reaction was then stopped by adding 10 μl of the ALPHA bead mixes (10 μg/ml, #6760617/Perkin-Elmer) pre-incubated with anti-phospho MBP antibody (320 pM, #05-429/Upstate) in 25 mM Tris, 200 mM NaCl, 110 nM EDTA and 0.3% BSA and left to stand overnight. b) PI3K-ALPHAs (e.g. PI3Kalpha): the test substance, 1 ng PI3Kalpha (#14-602, Upstate), 100 μM ATP and 20 μM PIP2 substrate (#P4508, Echelon) were incubated on a 384-well Optiplate (Perkin-Elmer) for 1 h in 50 mM Hepes, 50 mM NaCl, 5 mM MgCl2, 0.05% Chaps, 5 mM DTT at pH 7.4. The kinase reaction was then stopped by adding ALPHA bead mixes (10 μg/ml, #6760603/Perkin-Elmer) pre-incubated with 1 nM GST:Grp1 fusion protein (Upstate) and 15 nM biotinylated PIP3 (#C-39B6/Echelon) in 50 mM Hepes, 50 mM NaCl, 50 mM EDTA and 0.1% BSA and left to stand overnight.
(§4) The fluorescence was detected the following morning in a Fusion™^aα-system (Perkin-Elmer).
(§5) The %-inhibition values per substance concentration were calculated by means of the following formula from the raw data determined in the Fusion™ ? :
(§6) Eight determinations were made for each control and two for the substance samples. The 0% control either contains no ATP or no substrate, the 100% control (fully active kinase) contains no test substance. The IC50 values were determined using GraphPadPrism.

[2] = target: p38alpha (Homo sapiens (Human), UniProt Q16539); assay: Cell-free kinase assay (ALPHA technology), p38alpha; assay type: biochemical; details: 10 μM ATP
Description: as §1, §2, §3, §4, §5, §6

[3] = target: PI3Kalpha (Homo sapiens (Human), UniProt P42336); assay: Cell-free kinase assay (ALPHA technology), PI3Kalpha; assay type: biochemical; details: 100 μM ATP
Description: as §1, §2, §3, §4, §5, §6

[4] = target: Erk2 (Homo sapiens, UniProt P28482); assay: Cell-free kinase assay (ALPHA technology), Erk2; assay type: biochemical; details: 10 μM ATP
Description: The inhibitory effect of the compounds according to the invention was tested on various serine/threonine, tyrosine and lipid kinases in enzymatic assays. […] The commercial kinase proteins (Proqinase, Upstate) were used as recombinant fusion proteins with GST (glutathion-S-transferase) or His-Tag. Depending on the type of substrate, the various kinase reactions were quantified by means of suitable ALPHA™ beads (Perkin-Elmer). The substance testing is described in detail hereinafter for the Erk assay. […] a) MAPK-ALPHAs (e.g. […] The kinase reaction was then stopped by adding ALPHA bead mixes (10 μg/ml, #6760603/Perkin-Elmer) pre-incubated with 1 nM GST:Grp1 fusion protein (Upstate) and 15 nM biotinylated PIP3 (#C-39B6/Echelon) in 50 mM Hepes, 50 mM NaCl, 50 mM EDTA and 0.1% BSA and left to stand overnight. The fluorescence was detected the following morning in a Fusion™^aα-system (Perkin-Elmer). […] Eight determinations were made for each control and two for the substance samples. […] The IC50 values were determined using GraphPadPrism.

[5] = tested on: Hct116; assay: XTT assay, anti-proliferative effect, Hct116; assay type: cell-based; details: 45 h incubation
Description: (§7) The principle of this test is based on the intracellular reduction of the tetrazolium dye XTT (sodium 3′-[1-(phenylaminocarbonyl)-3,4-tetrazolium]-bis(4-methoxy-6-nitro)benzene sulfonic acid, Sigma) to a formazan dye by mitochondrial dehydrogenases. The dye is only formed by metabolically active cells and its photometrically measurable intensity is a quantitative indicator for the presence of living cells. The reduction of dye formation by incubation of the cells with substances serves as a parameter for the anti-proliferative effect.
(§8) The tumour cell lines (ATCC) were injected into 96-well microtitre plates in a defined cell number (5000 cells/well for BxPC3 and Hct116; 10000 cells/well for MDA MB468) and then incubated overnight in an incubator at 37° C., 5% CO2 and 95% air humidity. The test substances were prepared as stock solutions (10 mM) in DMSO. […] The cell plates were then incubated for 45 h in an incubator at 37° C., 5% CO2 and 95% air humidity.
(§9) For the detection reaction the substrate XTT was mixed with PMS (N-Methyl dibenzopyrazine methylsulfate, Sigma) and added to the cells so that a final concentration of 325 μg XTT/ml and 2.5 μg PMS/ml was obtained. It was then incubated for 3 h at 37° C., 95% air humidity. The formazan salt formed by the cellular dehydrogenases could then be quantified by adsorption at 490 nm.
(§10) The % inhibition value was evaluated by means of the following formula from the values for the optical densities measured in each case at 490 nm:
(§11) Eight determinations were made for each control and two for the substance samples. The 0% control contains no cells, the 100% control (proliferation control) contains no test substance. The EC50 values were determined using GraphPadPrism.

[6] = tested on: MDA-MB468; assay: XTT assay, anti-proliferative effect, MDA-MB468; assay type: cell-based; details: 45 h incubation
Description: as §7, §8, §9, §10, §11

Chain of PI3Kalpha (P42336 whole entry): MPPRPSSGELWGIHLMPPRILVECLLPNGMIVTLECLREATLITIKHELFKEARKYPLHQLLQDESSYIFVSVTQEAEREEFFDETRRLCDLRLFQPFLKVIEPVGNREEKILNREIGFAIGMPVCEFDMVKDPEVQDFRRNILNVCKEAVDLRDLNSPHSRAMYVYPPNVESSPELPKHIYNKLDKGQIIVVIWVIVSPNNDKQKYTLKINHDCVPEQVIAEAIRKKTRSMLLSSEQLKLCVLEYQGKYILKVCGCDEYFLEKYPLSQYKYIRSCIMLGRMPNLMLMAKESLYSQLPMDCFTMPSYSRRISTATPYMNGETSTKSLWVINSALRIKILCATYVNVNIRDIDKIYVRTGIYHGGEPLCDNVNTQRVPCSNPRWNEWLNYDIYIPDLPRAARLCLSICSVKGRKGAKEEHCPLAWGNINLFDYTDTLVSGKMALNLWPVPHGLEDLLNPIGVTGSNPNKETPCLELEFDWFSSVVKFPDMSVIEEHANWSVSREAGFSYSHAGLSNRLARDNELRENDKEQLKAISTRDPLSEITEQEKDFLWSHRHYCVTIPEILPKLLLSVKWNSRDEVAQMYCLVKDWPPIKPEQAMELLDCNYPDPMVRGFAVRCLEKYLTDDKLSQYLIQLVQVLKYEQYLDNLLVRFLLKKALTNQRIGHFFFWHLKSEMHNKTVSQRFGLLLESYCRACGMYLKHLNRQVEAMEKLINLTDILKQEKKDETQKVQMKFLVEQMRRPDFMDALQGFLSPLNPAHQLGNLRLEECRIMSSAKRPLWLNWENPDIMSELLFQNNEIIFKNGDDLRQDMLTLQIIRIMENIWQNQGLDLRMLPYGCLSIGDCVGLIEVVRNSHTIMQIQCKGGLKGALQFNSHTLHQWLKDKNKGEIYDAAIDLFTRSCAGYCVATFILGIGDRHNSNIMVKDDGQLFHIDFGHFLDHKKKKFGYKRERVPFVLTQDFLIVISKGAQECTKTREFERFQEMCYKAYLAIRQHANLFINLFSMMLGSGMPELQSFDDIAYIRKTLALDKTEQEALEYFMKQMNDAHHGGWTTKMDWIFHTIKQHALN
Chain of PI3Kalpha (P27986 whole entry partner): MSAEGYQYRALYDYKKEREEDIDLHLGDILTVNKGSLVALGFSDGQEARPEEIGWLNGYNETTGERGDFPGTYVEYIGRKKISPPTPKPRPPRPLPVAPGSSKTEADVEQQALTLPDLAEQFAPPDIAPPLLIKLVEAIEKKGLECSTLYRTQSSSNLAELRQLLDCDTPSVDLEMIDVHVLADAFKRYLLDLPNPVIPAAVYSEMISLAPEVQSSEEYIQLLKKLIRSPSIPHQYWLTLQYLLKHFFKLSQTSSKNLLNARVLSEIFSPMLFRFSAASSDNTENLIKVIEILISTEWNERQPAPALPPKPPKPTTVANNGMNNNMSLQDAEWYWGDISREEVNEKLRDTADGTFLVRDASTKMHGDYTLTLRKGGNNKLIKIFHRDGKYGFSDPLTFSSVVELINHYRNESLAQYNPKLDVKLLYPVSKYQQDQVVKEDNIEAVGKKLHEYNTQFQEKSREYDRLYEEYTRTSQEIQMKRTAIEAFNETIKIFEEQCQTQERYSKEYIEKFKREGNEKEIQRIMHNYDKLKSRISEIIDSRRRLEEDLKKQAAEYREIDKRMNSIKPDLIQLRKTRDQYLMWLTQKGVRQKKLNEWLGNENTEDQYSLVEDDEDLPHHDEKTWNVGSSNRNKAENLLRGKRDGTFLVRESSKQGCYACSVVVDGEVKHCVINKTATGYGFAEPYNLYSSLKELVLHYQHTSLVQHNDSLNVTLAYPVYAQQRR
Chain of p38alpha (Q16539 whole entry): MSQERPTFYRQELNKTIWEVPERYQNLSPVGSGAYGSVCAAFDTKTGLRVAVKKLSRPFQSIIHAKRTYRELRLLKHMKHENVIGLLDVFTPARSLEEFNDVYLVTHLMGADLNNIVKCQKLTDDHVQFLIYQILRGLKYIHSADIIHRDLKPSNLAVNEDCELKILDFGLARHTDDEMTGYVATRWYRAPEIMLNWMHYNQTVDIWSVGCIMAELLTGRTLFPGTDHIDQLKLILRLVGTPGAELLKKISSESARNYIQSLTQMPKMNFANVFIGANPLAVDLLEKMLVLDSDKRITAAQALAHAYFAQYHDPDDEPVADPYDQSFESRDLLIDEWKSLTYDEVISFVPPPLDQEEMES
Chain of Erk2 (P28482 2-360 limits assumed): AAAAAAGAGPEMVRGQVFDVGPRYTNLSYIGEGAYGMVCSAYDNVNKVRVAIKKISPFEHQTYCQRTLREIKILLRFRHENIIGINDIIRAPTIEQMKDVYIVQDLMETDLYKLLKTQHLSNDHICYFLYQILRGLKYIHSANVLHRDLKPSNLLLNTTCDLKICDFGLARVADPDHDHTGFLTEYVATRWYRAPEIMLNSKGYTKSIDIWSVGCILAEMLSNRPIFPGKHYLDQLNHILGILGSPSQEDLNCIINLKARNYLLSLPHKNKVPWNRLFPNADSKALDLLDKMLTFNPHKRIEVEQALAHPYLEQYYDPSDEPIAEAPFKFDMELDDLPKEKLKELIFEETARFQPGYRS

Which melting point does the source give for `C=CCNC(=S)Nc1ccc2ncc(-c3ccccc3)nc2n1` [Compound 1, 1-Allyl-3-(3-phenyl-pyrido[2,3-b]pyrazin-6-yl)-thiourea] here?
Its melting point is 239 to 240 °C (dec.).

And the IC50 [1]?
The IC50 was over 31.6 µM.

And the IC50 [2]?
Its IC50 is over 31.6 µM.

And the IC50 [3]?
The IC50 was 0.9 µM.

Which melting point does the source give for `CC(C)NC(=S)Nc1ccc2ncc(-c3ccccc3)nc2n1` [Compound 19, 1-isopropyl-3-(3-phenyl-pyrido[2,3-b]pyrazin-6-yl)-thiourea] here?
The melting point was 229 to 230 °C.

With `S=C(NCc1ccco1)Nc1ccc2ncc(-c3ccccc3)nc2n1` [Compound 20, 1-furan-2-ylmethyl-3-(3-phenyl-pyrido[2,3-b]pyrazin-6-yl)-thiourea] as the compound, how does the melting point read?
Its melting point is 250 °C (dec.).

For `O=C(Nc1ccc2ncc(-c3ccccc3)nc2n1)NC1CC1` [Compound 21, 1-cyclopropyl-3-(3-phenyl-pyrido[2,3-b]pyrazin-6-yl)-urea], which melting point is on record?
The melting point was 158 to 160 °C.

For `CNC(=S)Nc1ccc2ncc(-c3ccc([N+](=O)[O-])cc3)nc2n1` [Compound 22, 1-methyl-3-[3-(4-nitro-phenyl)-pyrido[2,3-b]pyrazin-6-yl]-thiourea], which melting point is on record?
Its melting point is 270 °C.

With `C=CCNC(=S)Nc1ccc2ncc(-c3ccc([N+](=O)[O-])cc3)nc2n1` [Compound 24, 1-allyl-3-[3-(4-nitro-phenyl)-pyrido[2,3-b]pyrazin-6-yl]-thiourea] as the compound, how does the melting point read?
The melting point was 244 °C (dec.).

What does the source list for `C=CCNC(=O)Nc1ccc2ncc(-c3ccc(O)cc3)nc2n1` [Compound 25, 1-allyl-3-[3-(4-hydroxy-phenyl)-pyrido[2,3-b]pyrazin-6-yl]-urea]?
melting point: 240 °C (dec.); IC50 [4]: 0.076 µM; IC50 [1]: > 31.6 µM; IC50 [2]: > 100 µM; IC50 [3]: 1.5 µM

With `C=CCNC(=S)Nc1ccc2ncc(-c3ccc(C(=O)OCC)cc3)nc2n1` [Compound 26, 4-[6-(3-allyl-thioureido)-pyrido[2,3-b]pyrazin-3-yl]-benzoic acid ethyl ester] as the compound, how does the melting point read?
Its melting point is 223 to 224 °C.

Which melting point does the source give for `C=CCNC(=S)Nc1ccc2ncc(-c3cccc(O)c3)nc2n1` [Compound 27, 1-allyl-3-[3-(3-hydroxy-phenyl)-pyrido[2,3-b]pyrazin-6-yl]-thiourea] here?
The melting point was 205 °C (dec.).

For `C=CCNC(=S)Nc1ccc2ncc(-c3ccc4c(c3)OCO4)nc2n1` [Compound 28, 1-allyl-3-(3-benzo[1,3]dioxol-5-yl-pyrido[2,3-b]pyrazin-6-yl)-thiourea], which melting point is on record?
Its melting point is 218 to 220 °C (dec.).

For `C=CCNC(=S)Nc1ccc2nc(-c3ccc(O)cc3)c(-c3ccc(O)cc3)nc2n1` [Compound 32, 1-allyl-3-[2,3-bis-(4-hydroxy-phenyl)-pyrido[2,3-b]pyrazin-6-yl]-thiourea], which melting point is on record?
The melting point was 270 °C (dec.).

With `C/C=C/NC(=S)Nc1ccc2nc(-c3ccc(O)cc3)c(-c3ccc(O)cc3)nc2n1` [Compound 33, 1-[2,3-bis-(4-hydroxy-phenyl)-pyrido[2,3-b]pyrazin-6-yl]-3-((E)-propenyl)-thiourea] as the compound, how does the melting point read?
Its melting point is 240 °C (dec.).

With `C=CCNC(=S)Nc1ccc2nc(-c3ccc(O)cc3)cnc2n1` [Compound 34, 1-allyl-3-[2-(4-hydroxy-phenyl)-pyrido[2,3-b]pyrazin-6-yl]-thiourea] as the compound, how does the melting point read?
The melting point was 260 °C (dec.).

For `O=C(NCCc1ccccc1)Nc1ccc2ncc(-c3ccccc3)nc2n1` [Compound 35, 1-Phenethyl-3-(3-phenyl-pyrido[2,3-b]pyrazin-6-yl)-urea], which melting point is on record?
Its melting point is 250 °C (dec.).

With `CCNC(=O)Nc1ccc2nc(-c3ccccn3)c(-c3ccccn3)nc2n1` [Compound 36, 1-(2,3-Di-pyridin-2-yl-pyrido[2,3-b]pyrazin-6-yl)-3-ethyl-urea] as the compound, how does the melting point read?
The melting point was 236 to 237 °C.

Which melting point does the source give for `CCNC(=O)Nc1ccc2nc(C)c(C)nc2n1` [Compound 37, 1-(2,3-Dimethyl-pyrido[2,3-b]pyrazin-6-yl)-3-ethyl-urea] here?
Its melting point is 246 to 248 °C.

With `C=CCNC(=S)Nc1cnc2nc(-c3ccc([N+](=O)[O-])cc3)cnc2c1` [Compound 137, 1-Allyl-3-[3-(4-nitro-phenyl)-pyrido[2,3-b]pyrazin-7-yl]-thiourea] as the compound, how does the melting point read?
The melting point was 250 °C (dec.).

For `CCNC(=O)Nc1ccc2ncc(-c3ccc(OP(=O)(O)O)c(OC)c3)nc2n1` [Compound 169, Phosphoric acid-mono-{4-[6-(3-ethyl-ureido)-pyrido-[2,3-b]pyrazin-3-yl]-2-methoxy-phenyl}-ester], which EC50 ([5]; Homo sapiens, HCT-116) is on record?
Its EC50 is 2.8 µM.

What about the IC50 [4] of the same compound?
The IC50 was 2.7 µM.

And the IC50 [1]?
The IC50 was 9.5 µM.

And the IC50 [2]?
Its IC50 is over 100 µM.

What about the IC50 [3] of the same compound?
Its IC50 is 3.7 µM.

What about the EC50 ([6]; Homo sapiens, MDA-MB-468) of the same compound?
The EC50 was 5.7 µM.

Which results are given for `CCNC(=O)Nc1ccc2ncc(-c3cc(Cl)c(O)c(OC)c3)nc2n1` [Compound 175]?
EC50 [5]: 4.4 µM; IC50 [4]: 0.191 µM; IC50 [1]: 2.5 µM; IC50 [2]: > 100 µM; IC50 [3]: 0.458 µM; EC50 [6]: > 50 µM

With `COc1cc(-c2cnc3ccc(NC(=O)NCCCCN4CCOCC4)nc3n2)ccc1O` [Compound 176, 1-[3-(4-Hydroxy-3-methoxy-phenyl)-pyrido[2,3-b]pyrazin-6-yl]-3-(4-morpholin-4-yl-butyl)-urea] as the compound, how does the EC50 ([5]; Homo sapiens, HCT-116) read?
The EC50 was 11.8 µM.

What about the EC50 ([6]; Homo sapiens, MDA-MB-468) of the same compound?
The EC50 was 17 µM.

Which results are given for `CCNC(=O)Nc1ccc2ncc(Nc3cc(C)cc(C)c3)nc2n1` [Compound 191, 1-[3-(3,5-Dimethyl-phenylamino)-pyrido[2,3-b]pyrazin-6-yl]-3-ethyl-urea]?
EC50 ([5]; Homo sapiens, HCT-116): 5.5 µM; EC50 ([6]; Homo sapiens, MDA-MB-468): 8.5 µM

With `CCNC(=O)Nc1ccc2ncc(-c3ccc(O)c(OC)c3)nc2n1` [Compound 193] as the compound, how does the EC50 [5] read?
Its EC50 is 2.1 µM.

And the IC50 [4]?
Its IC50 is 0.212 µM.

And the IC50 [1]?
The IC50 was 1.5 µM.

What about the IC50 [2] of the same compound?
The IC50 was over 100 µM.

And the IC50 [3]?
Its IC50 is 2.2 µM.

What about the EC50 [6] of the same compound?
The EC50 was 4.4 µM.
